From patent US12239733B2, “Treatment of protein aggregation myopathic and neurodegenerative diseases by parenteral administration of trehalose” (Seelos Therapeutics, Inc., priority 2013, dated 2025)
Entries after “also recorded” stand apart in the source; their conditions may differ.

How the values were obtained:
[1] = Preclinical pharmacokinetic study: plasma and muscle concentrations of trehalose after intravenous bolus (IV) and oral gavage (PO); format: in vivo, male Sprague-Dawley (SD) rats
Procedure: The plasma and muscle concentrations of trehalose in male Sprague-Dawley (SD) rats was determined after intravenous bolus (IV) and oral gavage (PO) administration.
The study included 42 SD rats (male, 250 to 350 grams in weight, the Shanghai SLAC Laboratory Animal Co. Ltd.). Animals were administered with a volume of 5 ml/kg trehalose formulation (trehalose dihydrate in sterilized water at 200 mg/mL) to achieve a nominal dose of 1 gr/kg, intravenously or orally.
Blood samples were collected after each dose administration and processed for plasma. Muscle samples (hind leg muscle) were collected and homogenized. The concentrations of trehalose in plasma and muscle homogenate samples were analyzed by qualified bioanalytical LC/MS/MS methods.
Plasma concentration data of trehalose was subjected to a non compartmental pharmacokinetic analysis using WinNonlin software program (version 6.3, Pharsight, Mountain View, CA). Zero-time intercept concentration (C0), volume of distribution (Vdss), Clearance (Cl), peak plasma concentrations (Cmax) and the corresponding peak times (Tmax), terminal half-life (T½), mean residence time (MRT) from time zero to the last time point (MRT0-last), MRT from time zero to infinity (MRT0-inf), the area under the plasma concentration-time curve (AUC) from time zero to the last time point (AUC0-last) and AUC from time zero extrapolated to infinity (AUC0-inf) were calculated using the linear/log trapezoidal rule. Nominal sampling times were used to calculate all pharmacokinetic parameters since there was not any deviation larger than 5% between the actual and nominal sampling times.
The values of muscle to plasma concentration and AUC ratio (M/P ratio) were both calculated.

[2] = oral (ingested); cited from earlier work
transgenic HD mice = details: oral, cited from earlier work
healthy volunteers = details: cited from earlier work
transgenic OPMD mice = details: cited from earlier work
[3] = 0.2%-5% trehalose in drinking water, 5-9 weeks

SMILES | tolerability in rats ([1]; 1000 mg/kg IV or PO, male SD rats) | share of ingested trehalose absorbed into the blood stream [2] | motor dysfunction / HD-related motor symptoms (transgenic HD mice; [3]) | polyglutamine / huntingtin aggregates (transgenic HD mice; [3]) | survival (transgenic HD mice; HD mouse model) | AUC0-inf/AUC0-last ([1]; male, Sprague-Dawley, rat, in vivo, iv, 1000 mg/kg) | AUC0-inf ([1]; rat, in vivo, iv, 1000 mg/kg) | plasma concentration of trehalose after oral administration ([1]; rat, in vivo, po) | safety issues reported (healthy volunteers; healthy volunteers, oral doses from 10 to 60 gr) | gastrointestinal effects of high oral amounts (healthy volunteers; oral, exceeding 40-50 gram per day, higher than 50 g a day in humans) | OPMD onset, phenotype, aggregate formation, cell death (transgenic OPMD mice; oral trehalose) | aggregation formation and toxicity of mutant PABPN1 in myocytes (transgenic OPMD mice; oral, 2% trehalose in drinking water, 4-6 months)
OC[C@H]1O[C@H](O[C@H]2O[C@H](CO)[C@@H](O)[C@H](O)[C@H]2O)[C@H](O)[C@@H](O)[C@@H]1O [trehalose dihydrate] | well tolerated | – | – | – | – | – | – | – | – | – | – | –
OC[C@H]1O[C@H](O[C@H]2O[C@H](CO)[C@@H](O)[C@H](O)[C@H]2O)[C@H](O)[C@@H](O)[C@@H]1O [trehalose, α-G-glucopyranosyl α-D-glucopyranoside] | – | Less than 0.5% | improve motor dysfunction; also recorded: improvement of HD-related motor symptoms | reduce polyglutamine aggregates; also recorded: inhibition of formation of intra-nuclear huntingtin aggregates in the brain and liver | extend survival | 100% | 183000 ng·h/g | undetectable | mild abdominal symptoms | frequently cause diarrhea, bloating and discomfort; also recorded: causes diarrhea and bloating | delay the OPMD onset, attenuate the disease phenotype, decrease polyalanine protein aggregate formation and decrease cell death | significantly reduce aggregation formation and toxicity of the mutant PABPN1 in myocytes
